Test results taken from patent US9440980B2, “Remedy for diabetes” (EA Pharma Co., Ltd., priority 2007, dated 2016).

Tested on: HLF cell membrane
Test: Binding assay of 3H-labeled Compound 1 using HLF cell membrane
Parameters: species or system human
Conditions: 3H-labeled Compound 1, calculated by Scatchard plot
Protocol: A cell membrane of a human liver-derived HLF cell was prepared as follows. HLF cells were approximately confluently cultured in a Dulbecco MEM medium containing 10% FCS in a cell culture dish having a diameter of 15 cm. The HLF cells cultured in 30 dishes were scraped by a cell scraper in the presence of an HMEE buffer (20 mM HEPES-KOH, 1 mM EDTA, 1 mM EGTA, and 2 mM MgCl2) to obtain about 30 ml of a cell suspension. The suspension was homogenized using a TEFLON (registered trademark) homogenizer (ice temperature, 1000 rpm, 15 stroke) and centrifuged at a low rate (1500 rpm, 5 minutes). […]
The binding assay of the ^3H-labeled Compound 1 on thus obtained cell membrane was carried out as follows. […] The filter plate was well washed with a TBS (20 mM Tris-HCl, 0.15 M NaCl, pH 7.4) containing 0.05% Twee-20 and sufficiently dried, 30 μl of a liquid scintillator (Microscinti 0, Packard) was added to the filter plate, and the ^3H count was measured by Topcount (Packard). […]
The inhibitory activity of each of the probe molecule compounds synthesized in Examples 2 and 7 to 10 against the binding of the ^3H-labeled Compound 1 to the HLF cell membrane was measured by the method described in Example 14 to confirm whether the probe compound could be bound to the binding protein like Compound 1. […]

## O=C1NCC2=C1[C@@H](c1cccc3ccsc13)N(C(=O)CCc1ccccn1)[C@@H]1CCCC[C@H]1N2 [Compound 1]
  Kd: 930 nM
